The target of one test is T1, Aurora A (Homo sapiens, UniProt O14965).
T1 construct: C-terminally Histidine4 (His4)-tagged Aurora A full-length protein
T1 sequence (O14965 1-403): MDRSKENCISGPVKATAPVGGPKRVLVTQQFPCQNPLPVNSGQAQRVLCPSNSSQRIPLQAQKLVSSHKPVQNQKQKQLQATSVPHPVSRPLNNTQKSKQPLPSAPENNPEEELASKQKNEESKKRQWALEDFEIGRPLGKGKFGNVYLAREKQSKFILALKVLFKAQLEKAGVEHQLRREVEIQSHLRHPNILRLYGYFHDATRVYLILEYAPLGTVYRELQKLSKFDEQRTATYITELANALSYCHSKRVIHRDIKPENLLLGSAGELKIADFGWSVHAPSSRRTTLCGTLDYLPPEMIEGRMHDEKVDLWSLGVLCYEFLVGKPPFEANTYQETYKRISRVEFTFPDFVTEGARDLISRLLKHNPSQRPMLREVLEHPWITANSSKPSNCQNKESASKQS
Nature of the test: IC50 determination for inhibitors of Aurora A (96 MTP-ELISA). The class given is biochemical. The following applies: His4-tagged full-length Aurora A 250 ng/ml, PKB-GSK2 200 nM, ATP 4 μM, 90 min at room temperature; read-out: IC50 Aurora A kinase inhibition. From the text:
IC50 Determination for Inhibitors of Aurora A
Aurora A is a serine threonine kinase involved in spindle assembly and chromosome segregation.
The assay is a typically ELISA-type assay where biotinylated substrate (PKB-GSK2) is phosphorylated. Phosphorylation is detected by peroxidase (POD) labelled polyclonal antibody (PAK<M-Ig>S-IgG-POD) and phosphopeptide monoclonal antibody (Mab) (MAK<P-GSK>M-27E5-IgG). The assay is validated for IC50-determination.
Aurora A-His-4 C-terminally Histidine4 (His4)-tagged Aurora A full-length protein, stock solution 0.7 mg/ml, final conc.: 250 ng/ml
PKB-GSK2 biotinylated peptide derived from human GSK3-alpha sequence (Biotin-SGRARTSSFAEPGG-CONH2), stock solution 600 μM, final conc.: 200 nM
ATP Adenosine-5′-triphosphate 1 mM, diluted in kinase buffer, (Roche Diagnostics GmbH, Cat. No.: 127531-001,), final conc.: 4 μM
Kinase buffer 50 mM TRIS, 10 mM MgCl2, 1 mM DTT, 0.1% Tween 20, pH 7.8
This assay is performed in 96-well format for IC50 determination with 5 samples (each with 8 concentrations by twofold testing), 100 μl incubation volume and the following plate layout:
Step/Action 1. Sample preparation: add 24 μl per well samples (descending sequence) diluted in kinase buffer to assay plate (final conc. for DMSO 1%). 2. Add directly 16 μl Aurora-A-his-4 diluted in kinase buffer to assay plate. 3. Add directly 40 μl per well PKB-GSK2/ATP mixture to assay plate, (final conc.: Aurora A=250 ng/ml, GSK2=200 nM, ATP=4 μM). Negative control: without ATP. 4. Incubate assay plate for exactly 90 min at room temperature. 5. Stop reaction by adding 20 μl EDTA in all wells. 6. Wash assay plate 3× with 200 μl washing buffer per well. 7. Add 100 μl MAK<P-GSK>M27E5-IgG (1:10000) and PAK<M-Ig>S-IgG-POD (1:6000) dissolved in 3% BSA/PBS-T to assay plate per well. 8. Incubate assay plate for 60 min at room temperature. 9. Wash assay plate 3× with 200 μl washing buffer per well 10. Add 100 μl ABTS solution to assay plate per well, incubate for approx. 4 min at RT on MTP shaker. 11. Measure absorption at 405/492 nm. 12. Calculate % inhibition as: (1−(Esample−ENC)/(EPC−ENC))×100 13. Calculate IC50 using a non-linear curve fit (XLfit software (ID Business Solution Ltd., Guilford, Surrey, UK))

Another test has as its system HCT 116 cells. Nature of the test: CellTiter-Glo assay in HCT 116 cells (antiproliferative activity). The following applies: HCT 116 human colon carcinoma cells, 5 days (120 h) incubation, CellTiter-Glo luminescence. It is filed as cell-based. The text has this: Antiproliferative Activity
CellTiter-Glo™ Assay in HCT 116 Cells
The CellTiter-Glo™ Luminescent Cell Viability Assay (Promega) is a homogeneous method of determining the number of viable cells in culture based on quantitation of the ATP present, which signals the presence of metabolically active cells.
HCT 116 cells (human colon carcinoma, ATCC-No. CCI-247) were cultivated in RPMI 1640 medium with GlutaMAX™ I (Invitrogen, Cat-No. 61870-010), 2.5% Fetal Calf Serum (FCS, Sigma Cat-No. F4135 (FBS)); 100 Units/ml penicillin/100 μg/ml streptomycin (=Pen/Strep from Invitrogen Cat. No. 15140). For the assay the cells were seeded in 384 well plates, 1000 cells per well, in the same medium. The next day the test compounds were added in various concentrations ranging from 30 μM to 0.0015 μM (10 concentrations, 1:3 diluted). After 5 days the CellTiter-Glo™ assay was done according to the instructions of the manufacturer (CellTiter-Glo™ Luminescent Cell Viability Assay, from Promega). In brief: the cell-plate was equilibrated to room temperature for approximately 30 minutes and than the CellTiter-Glo™ reagent was added. The contents were carefully mixed for 15 minutes to induce cell lysis. After 45 minutes the luminescent signal was measured in Victor 2, (scanning multiwell spectrophotometer, Wallac).
Medium: RPMI 1640 with GlutaMAX™ I (Invitrogen, Cat-Nr. 61870), 5% FCS (Sigma Cat.-No. F4135), Pen/Strep (Invitrogen, Cat No. 15140).
HCT116 (ATCC-No. CCI-247): 1000 cells in 60 μl per well of 384 well plate (Greiner 781098, μClear-plate white)
After seeding incubate plates 24 h at 37° C., 5% CO2
2nd. Day: Induction (Treatment with Compounds, 10 Concentrations):
In order to achieve a final concentration of 30 μM as highest concentration 3.5 μl of 10 mM compound stock solution were added directly to 163 μl media. Then step e) of the dilution procedure described below, was followed.
In order to achieve the second highest to the lowest concentrations, a serial dilution with dilution steps of 1:3 was followed according to the procedure (a-e) as described here below: • for the second highest concentration add 10 μl of 10 mM stock solution of compound to 20 μl dimethylsulfoxide (DMSO) • dilute 8×1:3 (always 10 μl to 20 μl DMSO) in this DMSO dilution row (results in 9 wells with concentrations from 3333.3 μM to 0.51 μM) • dilute each concentration 1:47.6 (3.5 μl compound dilution to 163 μl media) • add 10 μl of every concentration to 60 μl media in the cell plate resulting in final concentration of DMSO: 0.3% in every well and resulting in 10 final concentration of compounds ranging from 30 μM to 0.0015 μM. • Each compound is tested in triplicate. • Incubate 120 h (5 days) at 37° C., 5% CO2 Analysis:
Add 30 μl CellTiter-Glo™ Reagent (prepared from CellTiter-Glo™ Buffer and CellTiter-Glo™ Substrate (lyophilized) purchased from Promega) per well, • shake 15 minutes at room temperature • incubate further 45 minutes at room temperature without shaking Measurement:
Victor 2 scanning multiwell spectrophotometer (Wallac), Luminescence mode (0.5 sec/read, 477 nm)
Determine IC50 using a non-linear curve fit (XLfit software (ID Business Solution Ltd., Guilford, Surrey, UK))

The record followed here is patent US7285569B2, “Tricycles, their manufacture and use as pharmaceutical agents” (Hoff Hoffmann-La Roche Inc., priority 2004, dated 2007).

pIC50: −log10 of the molar value.

With `CCCc1cc(-c2nc3cc4c(cc3[nH]2)C(C)(C)CC(=O)N4)[nH]n1` [Example 23, 8,8-Dimethyl-2-(5-propyl-2H-pyrazol-3-yl)-1,5,7,8-tetrahydro-imidazo[4,5-g]quinolin-6-one], the pIC50 at Aurora A is 6.30 to 8.00; in the test on HCT 116 cells it was 5.00 to 7.00.

For the molecule `CC(=O)N1CC(C)(C)c2cc3nc(-c4cc(C)n[nH]4)[nH]c3cc21` [Example 2, 1-[7,7-Dimethyl-2-(5-methyl-2H-pyrazol-3-yl)-6,7-dihydro-3H-imidazo[4,5-f]indol-5-yl]-ethanone], the pIC50 was 6.30 to 8.00 at Aurora A and 5.33 in the test on HCT 116 cells.

Take `Cc1[nH]nc(-c2nc3cc4c(cc3[nH]2)C(C)(C)C(=O)N4)c1C` [Example 17, 2-(4,5-Dimethyl-1H-pyrazol-3-yl)-7,7-dimethyl-5,7-dihydro-1H-imidazo[4,5-f]indol-6-one]: the pIC50 is 6.30 to 8.00 on Aurora A and 5.00 to 7.00 in the test with HCT 116 cells.

Take `Cc1cc(-c2nc3cc4c(cc3[nH]2)C(C)(C)CC(=O)N4)n[nH]1` [Example 3, 8,8-Dimethyl-2-(5-methyl-1H-pyrazol-3-yl)-1,5,7,8-tetrahydro-imidazo[4,5-g]quinolin-6-one]: the pIC50 is 6.67 on Aurora A and 4.00 to 5.00 in the test on HCT 116 cells.

Turning to `Cc1cc(-c2nc3cc4c(cc3[nH]2)NC(=O)C42CCCC2)[nH]n1` [Example 7, 2-(5-Methyl-2H-pyrazol-3-yl)-spiro-5,7-dihydro[cyclopentane-1′,7-imidazo[4,5-f]indol]-6(3H)-one], the pIC50 was 6.30 to 8.00 on Aurora A and 5.00 to 7.00 in the test on HCT 116 cells.

In general, pIC50 refers to the negative decadic logarithm of the IC50, by convention in mol/L.
